Measurements as given in patent US20070286886A1, “Materials And Methods For Inducing Apoptosis In Adipocytes” (University of Tennessee Research Foundation, priority 2004, published 2007).

Tests used:
caspase-1 = experiment: Caspase-1 mRNA expression by real-time PCR in 3T3-L1 and UCP2-transfected 3T3-L1 adipocytes; type: cell-based; settings: DNP 25 μM and 50 μM, 24 h; P<0.05
Protocol: (§1) 3T3-L1 preadipocytes were incubated at a density of 8000 cells/cm2 (10 cm2 dish) and grown in Dulbecco's modified Eagle's medium (DMEM) containing 10% FBS and antibiotics (adipocyte medium) at 37° C. in 5% CO2 in air. Confluent preadipocytes were induced to differentiate with a standard differentiation medium consisting of DMEM-F10 (1:1, vol/vol) medium supplemented with 1% FBS, 1 μM dexamethasone, IBMX (0.5 mM), and antibiotics (1% penicillin-streptomycin). Preadipocytes were maintained in this differentiation medium for 3 days and subsequently cultured in adipocyte medium. Cultures were re-fed every 2-3 days to allow 90% cells to reach full differentiation before they were chemically treated. Chemicals were freshly diluted in adipocyte medium before treatment. Cells were washed with fresh adipocyte medium, re-fed with medium containing the different treatments, and incubated at 37° C. in 5% CO2 in air before analysis. Cell viability was measured via trypan blue exclusion.
(§2) UCP2 full-length cDNAs were amplified by […] using mRNAs isolated from mouse white adipose tissues. The PCR primers for this amplification are shown as follows: UCP2 forward, 5′-[…]-3′, reverse, 5′-[…]-3′. The PCR products were then subcloned into pcDNA4/His expression vectors. The linearized constructs were transfected into 3T3-L1 preadipocytes using lipofectamine plus standard protocol (Invitrogen, Carlsbad, Calif.). After 48 h of transfection, cells were split and cultured in selective medium containing 400 ug/ml zeocin for the selection of resistant colonies. […]
(§3) Adipocyte caspase-1, caspase-3, Bcl-2, and Bax mRNA were quantitatively measured using a Smart Cycler Real Time PCR System (Cepheid, Sunnyvale, Calif.) with a TaqMan 1000 Core Reagent Kit (Applied Biosystems, Branchburg, N.J.). […] Reactions of quantitative RT-PCR for standards and unknown samples were Cepheid, Sunnyvale, Calif.) and TaqMan Real Time PCR Core Kit. The mRNA quantitation for each sample was further normalized using the corresponding 18 s quantitation, with a forward primer, 5′-[…]-3′, and a reverse primer, 5′-[…]-3′.

caspase-3 = experiment: Caspase-3 mRNA expression by real-time PCR in 3T3-L1 and UCP2-transfected 3T3-L1 adipocytes; type: cell-based
Protocol: as §1
UCP2 full-length cDNAs were amplified by […] using mRNAs isolated from mouse white adipose tissues. The PCR primers for this amplification are shown as follows: UCP2 forward, 5′-[…]-3′, reverse, 5′-[…]-3′. The PCR products were then subcloned into pcDNA4/His expression vectors. The linearized constructs were transfected into 3T3-L1 preadipocytes using lipofectamine plus standard protocol (Invitrogen, Carlsbad, Calif.). After 48 h of transfection, cells were split and cultured in selective medium containing 400 ug/ml zeocin for the selection of resistant colonies. Cells were fed with selective medium every 3 days until resistant colonies could be identified. These resistant foci were picked, expanded, tested for expression, and frozen for future experiments.
A total cellular RNA isolation kit (Ambion, Austin, Tex.) was used to extract total RNA from 3T3-L1 cells according to the manufacturer's instructions.
Adipocyte caspase-1, caspase-3, Bcl-2, and Bax mRNA were quantitatively measured using a Smart Cycler Real Time PCR System (Cepheid, Sunnyvale, Calif.) with a TaqMan 1000 Core Reagent Kit (Applied Biosystems, Branchburg, N.J.). The primers and probe sets were ordered from Applied Biosystems TaqMan Assays-on-Demand Gene Expression primers and probe set collection according to the manufacturer's instructions. Pooled 3T3-L1 adipocyte total RNA was serial-diluted in the range of 1.5625-25 ng and used to establish a standard curve; total RNAs for unknown samples were also diluted in this range. Reactions of quantitative RT-PCR for standards and unknown samples were Cepheid, Sunnyvale, Calif.) and TaqMan Real Time PCR Core Kit. The mRNA quantitation for each sample was further normalized using the corresponding 18 s quantitation, with a forward primer, 5′-[…]-3′, and a reverse primer, 5′-[…]-3′.
3T3-L1 preadipocytes were incubated at a density of 8000 cells/cm2 (10 cm2 dish) and grown in Dulbecco's modified Eagle's medium (DMEM) containing 10% FBS and antibiotics at 37° C. in 5% CO2. Confluent preadipocytes were induced to differentiate with a standard differentiation medium consisting of DMEM-F 10 (1:1, vol/vol) medium supplemented with 1% FBS, 1 μM dexamethasone, IBMX (0.5 mM) and antibiotics (1% penicillin/streptomycin). Preadipocytes were maintained in this differentiation medium for 3 days and subsequently cultured in adipocyte medium. Cultures were re-fed every 2-3 days to allow 90% cells to reach fully differentiation before conducting chemical treatment. Chemicals were freshly diluted in adipocyte medium before treatment. Cells were washed with fresh adipocyte medium, re-fed with medium containing the different treatments, and incubated at 37° C. in 5% CO2 in air before analysis. Cell viability was measured via trypan blue exclusion.
Adipocytes were incubated with adipocyte medium for 24 h with or without GDP, BK 8644, GDP plus BK8644 before total RNA extraction. […]

Bcl-2/Bax = Bcl-2/Bax expression ratio by real-time PCR in 3T3-L1 and UCP2-transfected 3T3-L1 adipocytes; type: cell-based; settings: DNP 25 μM and 50 μM, 24 h; P<0.02
Protocol: as §1, §2, §3

[1] = tested on: 3T3-L1 and UCP2-transfected 3T3-L1 cells; experiment: Mitochondrial membrane potential (JC-1 fluorometry) in adipocytes; type: cell-based; settings: for increase in mitochondrial potential: p<0.05
Protocol: (§4) Adipocytes were incubated with adipocyte medium for 4 h with or without 1α,25-(OH)2-D3. Mitochondrial membrane potential was analyzed fluorometrically with a lipophilic cationic dye JC-1 (5,5′,6,6′-tetrachloro-1,1′,3,3′-tetraethylbenzimidazol carbocyanine iodide) using a mitochondrial potential detection kit (Biocarta, San Diego, Calif.). Mitochondrial potential was determined as the ratio of red fluorescence (excitation 550 nm, emission 600 nm) and green fluorescence (excitation 485 nm, emission 535 nm) using a fluorescence microplate reader.
as §4, with “GDP, BK 8644, GDP plus BK8644.” for “1α,25-(OH)2-D3.”

[2] = tested on: 3T3-L1 and UCP2-transfected 3T3-L1 adipocytes; experiment: Cytosolic/intracellular calcium (fura-2 dual-wavelength fluorescence imaging) in adipocytes; type: cell-based; settings: 3T3-L1 cells; data not shown
UCP2 = UCP2 expression in 3T3-L1 cells (western blot, UCP2/actin); type: cell-based, mouse; settings: siRNA transfected 3T3-L1 cells, 48 hrs after transfection
Protocol: Duplex siRNA corresponding to UCP2 gene was designed and chemically synthesized by Invitrogen. The following gene-specific sequences were used successfully: Si-UCP2 sense 5′-GCCUCUACGACUCUGUCAA-3′ and antisense […]. Transfection of siRNA was performed with Oligofectamine™ reagent (Invitrogen Life Technologies, CA) in 6-well plates. Briefly, Oligofectamine diluted in DMEM was applied to the duplex siRNA mixture, and the formulation was continued for 20 min to allow the Oligofectamine-oligonucleotide complex to form. Per well, 800 μl of plating medium and 10 ul of 20 μM duplex siRNA duplex siRNA formulated with 4 μl of Oligofectamine were applied in a final volume of 1 ml. Cells were then incubated at […] in a CO2 incubator for 4 hrs. […]
Adipocytes were harvested and sonicated in a homogenization buffer containing 50 mM Tris-HCl (PH 7.4), 250 mM sucrose, 1 mM EDTA, 1 mM dithiothreitol, 1% (v/v) Triton X, 10% protease cocktail (Sigma). […] Homogenate intrafranatant protein from equal numbers of cells (determined via protein quantitation using Bradford method as described previously) was boiled in Laemmli sample buffer and subject to 10% SDS-polyacrylamide gel electrophoresis (PAGE). […] Visualization was detected with chemiluminescence reagent, using the Western Blotting Luminal Reagent (Santa Cruz Biotechnology, CA).

[3] = siRNA transfected 3T3-L1 cells (UCP2 ko) vs control

O=[N+]([O-])c1ccc(O)c([N+](=O)[O-])c1 [DNP, 2,4-dinitrophenol]
basal caspase-1 expression level compared with control cells (caspase-1): significantly higher
basal caspase-3 expression level compared with control cells (caspase-3; DNP 25 μM and 50 μM, 24 h, P<0.05): significantly higher
Bcl-2/Bax ratio versus nontransfected 3T3-L1 cells (Bcl-2/Bax): significantly lower

Nc1nc2c(ncn2[C@@H]2O[C@H](COP(=O)(O)OP(=O)(O)O)[C@@H](O)[C@H]2O)c(=O)[nH]1 [GDP, guanosine 5′-diphosphate]
suppression of caspase-3 expression in BK8644 pretreated cells (caspase-3; 3T3-L1 cells pretreated with BK8644, p<0.05): 45%
increase in mitochondrial potential ([1]; 100 μM, 3T3-L1 cells, 4 h): 27%
increase in mitochondrial potential ([1]; 500 μM, 3T3-L1 cells, 4 h): 48%
mitochondrial potential ([1]; 3T3-L1 cells, GDP): increased
[Ca2+]i level [2]: decreased

siRNA: duplex siRNA corresponding to UCP2 gene, sense 5′-GCCUCUACGACUCUGUCAA-3′ (antisense UUGACAGAGUCGAGGC; chemistry not given here)
decrease in caspase-3 expression (caspase-3; [3]): 58%
increase in mitochondrial potential [1, 3]: 52%
decrease in UCP2 expression (UCP2): 70%
